Here are results for two compounds from article PMC5094908 (Journal of applied toxicology : JAT, 2016).

One series has as its system NSC and dNSC cells. Particulars: 24 h exposure, [ATP], 0.78 to 100 µM.
Series [1] has as its system LUHMES and dLUHMES cells.
For series [2], the system named is LUHMES and dLUHMES cells. Conditions: 6 h, 6HD 1 µM.
For series [3], the system named is Caspase 3/7 activity in SH-SY5Y and dSH-SY5Y cells. Description: Caspase-Glo 3/7 luminescence assay, 24 h. The format is cell-based.
The test system of series [4] is Caspase 3/7 activity in NSC and dNSC cells. It counts as cell-based, human. Particulars: 24 h, threshold […] above control.
The next series deals with SH-SY5Y. Conditions: cited from earlier work.

Where two headings read alike, the source gives them in different places.

`NCCc1cc(O)c(O)cc1O` [6HD, 6-hydroxydopamine]: in the series on NSC and dNSC cells, the “relative cytotoxic sensitivity of NSC versus dNSC” value is “NSC more sensitive than dNSC”. Moreover, the “cytotoxic sensitivity ([ATP] IC50) of LUHMES and/or dLUHMES relative to the other cell lines” value with LUHMES and dLUHMES cells [1] (24 h exposure, 0.78 to 100 µM, vs SH-SY5Y/dSH-SY5Y and NSC/dNSC) is reported as “more sensitive than the other cell lines”. In the series on LUHMES and dLUHMES cells [1] (24 h exposure, [ATP], 0.78 to 100 µM), the “relative cytotoxic sensitivity of LUHMES versus dLUHMES cells” value is reported as “dLUHMES cells were markedly more sensitive than LUHMES cells”. Also, in the series on LUHMES and dLUHMES cells [2] (LUHMES), the “expression of a series of apoptosis-related genes” value is reported as “not observed”. For the same compound, in the series with LUHMES and dLUHMES cells [2] (dLUHMES), the “expression of BCL2A1 and IL10” value is listed as “increased expression”; the “expression of a series of apoptosis-related genes” value is recorded as “increased expression”. Besides, the “peak Caspase 3/7 activities, ranking among compounds” value in series [3] was “highest activities”. Besides, the “increase of Caspase 3/7 activity in dNSC” value in series [4] was “but not dNSC”.
For the compound `O=c1c(O)c(-c2ccc(O)c(O)c2)oc2cc(O)cc(O)c12` [QRC, Quercetin], the “cytotoxic sensitivity ([ATP] IC50) of LUHMES and/or dLUHMES relative to the other cell lines” value in the series with LUHMES and dLUHMES cells [1] is “more sensitive than the other cell lines”. Moreover, the “In vitro neural selectivity (effect reported in SH-SY5Y)” value in the series on SH-SY5Y is “Toxic or protective in SH- SY5Y ([Ossola et al., 2008])”.
